pIC50: −log10 of the molar value.
Legend:
MCF7 = assay: Human Disease Oriented in vitro Antitumor Screen (NCI), total growth inhibition, MCF7; type: cell-based; details: Breast Cancer
Description: (§1) Compound 1 was evaluated for its anti-tumor activity using the Human Disease Oriented in vitro Antitumor Screen at the National Cancer Institute.

MOLT-4 = assay: Human Disease Oriented in vitro Antitumor Screen (NCI), total growth inhibition, MOLT-4; type: cell-based; details: Leukemia
Description: as §1

CCRF-CEM = assay: Human Disease Oriented in vitro Antitumor Screen (NCI), total growth inhibition, CCRF-CEM; type: cell-based; details: Leukemia
Description: as §1

MCF7-ADR-RES = assay: Human Disease Oriented in vitro Antitumor Screen (NCI), total growth inhibition, MCF7-ADR-RES; type: cell-based; details: Breast Cancer
Description: as §1

[1] = biological target: T1, human dihydrofolate Reductase (Homo sapiens, UniProt P00374); assay: inhibition of human dihydrofolate reductase; type: biochemical; details: human enzyme; read-out: I50
T1 sequence (P00374 1-187): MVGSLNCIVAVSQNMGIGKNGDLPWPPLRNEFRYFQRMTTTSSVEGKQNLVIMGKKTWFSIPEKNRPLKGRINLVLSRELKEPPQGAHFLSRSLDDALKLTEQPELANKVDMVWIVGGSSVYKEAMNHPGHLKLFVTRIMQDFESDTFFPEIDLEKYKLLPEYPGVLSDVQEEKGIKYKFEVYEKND
Source text: In order to unravel the mechanism of action of 1 and 1 e they were examined as inhibitors of human dihydrofolate Reductase.

[2] = test system: selected human tumor cells; assay: Human Disease Oriented in vitro Antitumor Screen (NCI), panel as a whole; type: cell-based
Description: Compound 1 was evaluated for its anti-tumor activity using the Human Disease Oriented in vitro Antitumor Screen at the National Cancer Institute. […] This unexpected finding may be due to the inability of 1 to undergo metabolic transformation.

[3] = test system: folylpolyglutamate synthetase; assay: evaluation in vitro using folylpolyglutamate synthetase (polyglutamylation); type: in vitro ADME
SF 539 = assay: Human Disease Oriented in vitro Antitumor Screen (NCI), total growth inhibition, SF 539; type: cell-based; details: CNS Cancer
Description: as §1

RPMI 8226 = assay: Human Disease Oriented in vitro Antitumor Screen (NCI), total growth inhibition, RPMI 8226; type: cell-based; details: Leukemia
Description: as §1

allergic rabbits = assay: allergen-induced asthmatic responses and bronchial hyper-responsiveness (BHR) in allergic rabbits; type: in vivo, New Zealand White rabbit; details: for Asthmatic Response, Early: percent inhibition from control / Asthmatic Response, Late: percent inhibition from control / BHR (bronchial hyper-responsiveness): percent inhibition from control: aerosol 5 mg/ml; for Asthmatic Response, Early: percent inhibition from control: early-phase area under the curve; for Asthmatic Response, Late: percent inhibition from control: late-phase area under the curve; for BHR (bronchial hyper-responsiveness): percent inhibition from control: repeat histamine challenge 24 hour later
Description: Experimental Model: Induction of Asthma in Rabbits. New Zealand White Pasturella-free rabbit litter mates were bred and immunized ip within 24 hour of birth with 312 AU dust mite allergen extract [Berkeley Biological, Berkeley, Calif.] in 10% kaolin once every week for one month, then biweekly until the age of 4 months. Mustafa and co-workers used this rabbit model as described in American Journal of Physiology [266, 271-277, 1994]. These allergic animals preferentially produce allergen-specific IgE antibody and typically respond to aeroallergen challenge with an early and late phase asthmatic response and show increased bronchial hyper responsiveness (BHR).
Allergen, Theophylline and Antifolate Challenges: These experiments were carried out as described by Mustafa and co-workers in the Journal, Agents and Actions in 1992 [37, 168-170, 1992 ]. Briefly, allergic rabbits were challenged with ragweed allergen aerosol (10,000 PNU/mL) as described until there was an approximate 50% reduction in dynamic compliance (Cdyn). Pulmonary function was measured at 15 minutes intervals for 6 hours. The rabbit was challenged with indicated antifolates [5 mg/mL, aerosolized for 4 minutes ] followed immediately by the same total dose of allergen. Pulmonary function measurements as described by Mustafa and co-workers in the cited reference were carried out for 6 hours.
To assess the effect of antifolates on allergen-induced changes in the airways, the area under the curve for early and late -phase response was digitalized by computer-assisted plenometry for each rabbit during the six hour time period.

[4] = test system: rabbit liver aldehyde oxidase; assay: incubation with rabbit liver aldehyde oxidase (conversion to 7-hydroxy derivative); type: in vitro ADME
[5] = test system: human leukemia and human solid tumor cells; assay: inhibitory activity against the growth of human cancer cells in culture; type: cell-based
SR = assay: Human Disease Oriented in vitro Antitumor Screen (NCI), total growth inhibition, SR; type: cell-based; details: Leukemia
Description: as §1

K562 = assay: Human Disease Oriented in vitro Antitumor Screen (NCI), total growth inhibition, K562; type: cell-based; details: Leukemia
Description: as §1

[6] = test system: leukemia cells that are resistant to MTX by virtue of defective polyglutamylation; assay: growth inhibition of MTX-resistant leukemia cells with defective polyglutamylation vs wild type CCRF-CEM; type: cell-based; details: defective polyglutamylation line compared to wild type MTX sensitive parental CCRF-CEM
Source text: (§2) As part of a continuing program aimed at the development of less toxic and more specific antifolate drugs for the treatment of human cancers, the pteridine ring of the experimental anticancer drug methylene-10-deazaaminopterin [MDAM] was replaced with a quinazoline ring.

[7] = test system: carboxypeptidase derived from Pseudomonad sp
Source text: as §2

SMILES | Log 10 TGI (MOLT-4) | Log 10 TGI (CCRF-CEM) | Log 10 TGI (SF 539) | Log 10 TGI (RPMI 8226) | Asthmatic Response, Early: percent inhibition from control (allergic rabbits) [%] | Asthmatic Response, Late: percent inhibition from control (allergic rabbits) [%] | BHR (bronchial hyper-responsiveness): percent inhibition from control (allergic rabbits) [%] | Log 10 TGI (SR) | Log 10 TGI (K562) | removal of the 4-methyleneglutamate moiety by carboxypeptidase [7] | other results
C=C(CC(NC(=O)c1ccc(CCc2ccc3nc(N)nc(N)c3c2)cc1)C(=O)O)C(=O)O (stereo not shown) [Compound 1, 5,8,10-trideaza-4'-methyleneaminopterin] | -7.4 | < -8.00 | -6.3 | -7.44 | 52 | 58 | 47 | < -8.00 | < -8.00 | failed to remove the 4-methyleneglutamate moiety | Log 10 TGI (MCF7): -6.32; Log 10 TGI (MCF7-ADR-RES): -7.26; pIC50 [1]: 7.18; killing of cancer cells (in words) ([2]; NCI in vitro antitumor screen): able to kill cancer cells with remarkable potency; times more effective than MTX in this panel ([2]; total growth inhibition, NCI panel of Table 2): 1,000-10,000 times; elaboration to polyglutamates [3]: not capable of elaboration to its polyglutamates; anti-asthmatic activity (in words) (allergic rabbits; relative to MTX and theophylline): not only superior to MTX but also to the well known anti-asthmatic drug theophylline in both early and late asthmatic responses and bronchial hyper responsiveness (BHR); conversion to 7-hydroxy derivative by aldehyde oxidase [4]: completely inert; inhibitory activity against the growth of human cancer cells relative to MTX or MDAM [5]: strikingly more active than either MTX or MDAM; killing of human leukemia and solid tumor cells in culture ([5]; therapeutically relevant concentrations): able to kill a large number of human luekemia and human solid tumor cells in culture at therapeutically relevant concentrations; collateral sensitivity: times more sensitive in inhibiting the growth of MTX-resistant leukemia cells [6]: 4-5 times
C=C(CC(NC(=O)c1ccc(N(C)Cc2ccc3nc(N)nc(N)c3c2)cc1)C(=O)O)C(=O)O (stereo not shown) [Compound 1d] |  |  |  |  |  |  |  |  |  | failed to remove the 4-methyleneglutamate moiety | 
CN(Cc1cnc2nc(N)nc(N)c2n1)c1ccc(C(=O)N[C@@H](CCC(=O)O)C(=O)O)cc1 [MTX, methotrexate, reference compound] | -3.55 | -3.77 | -3.66 | -3.66 | 29 | 37 | 32 | -3.25 | -3.3 |  | 
Cn1c(=O)c2[nH]cnc2n(C)c1=O [Theophylline, theophylline] |  |  |  |  | 45 | 49 | 39 |  |  |  | 
